Measured values taken from ChEMBL document CHEMBL1134487, “Design, synthesis, and biological evaluation of analogues of the antitumor agent, 2-(4-[(7-chloro-2-quinoxalinyl)oxy]phenoxy)propionic acid (XK469)” (2001).
Activity calls are given as the source filed them. The rule behind the calls is not given here.

Key:
[1] = tested on: Mus musculus; assay: In vivo activity tested against C3H mice bearing panc-03 murine tumor at a dose of 330mg/kg, measured as % treated/control; format: functional
[2] = tested on: Mus musculus; assay: In vivo activity tested against C3H mice bearing panc-03 murine tumor at a dose of 330mg/kg, measured as activity rating; format: functional
[3] = tested on: Mus musculus; assay: In vivo activity tested against C3H mice bearing panc-03 murine tumor measured as % treated/control calculated at 700 mg/kg (po); format: functional
[4] = tested on: Mus musculus; assay: In vivo activity tested against C3H mice bearing panc-03 murine tumor measured as body weight loss at 700 mg/kg (po); format: functional
[5] = tested on: Mus musculus; assay: In vivo activity tested against C3H mice bearing panc-03 murine tumor measured as log Kill value was based on tumors that grew at 700 mg/kg (po); format: functional, organism-based; parameters: dose 700 mg/kg
[6] = tested on: Mus musculus; assay: In vivo activity against iv transplanted AML Leukemia 1498 tumors of mice; Not active; format: functional, organism-based
[7] = tested on: Mus musculus; assay: In vivo activity against transplanted Mam-16/C/ Taxol tumors of mice; Not active; format: functional, organism-based
[8] = tested on: Mus musculus; assay: In vivo activity against iv transplanted Leukemia L1210 tumors of mice; format: functional, organism-based
[9] = tested on: Mus musculus; assay: In vivo activity against transplanted Mam-16/C tumors of mice; format: functional, organism-based
[10] = tested on: Mus musculus; assay: In vivo activity against transplanted Mam-16/C/Adr tumors of mice; format: functional, organism-based
[11] = tested on: Mus musculus; assay: In vivo activity against transplanted Mam-17/Adr tumors of mice; format: functional, organism-based
[12] = tested on: Mus musculus; assay: In vivo activity against transplanted Panc-02 tumors of mice; format: functional, organism-based
[13] = tested on: Mus musculus; assay: In vivo activity against transplanted Panc-03 tumors of mice; format: functional, organism-based
[14] = tested on: Mus musculus; assay: In vivo activity against transplanted Squam lung-LC12 tumors of mice; format: functional, organism-based
[15] = tested on: Mus musculus; assay: In vivo activity against transplanted colon-26 tumors of mice; format: functional, organism-based
[16] = tested on: Mus musculus; assay: In vivo activity against transplanted colon-38 tumors of mice; format: functional, organism-based
[17] = tested on: Mus musculus; assay: In vivo activity against transplanted colon-51 tumors of mice; format: functional, organism-based
[18] = tested on: Mus musculus; assay: In vivo activity against transplanted Mel-B16 tumors of mice; format: functional, organism-based
[19] = tested on: Mus musculus; assay: In vivo activity against transplanted Mam-17 tumors of mice; format: functional, organism-based
[20] = tested on: Mus musculus; assay: In vivo activity tested against C3H mice bearing mammary adenocarcinoma -17/ADR tumor measured as body weight loss at 1250 mg/kg (po); format: functional
[21] = tested on: Mus musculus; assay: In vivo activity tested against C3H mice bearing mammary adenocarcinoma -17/ADR tumor measured as body weight loss at 750 mg/kg (po); format: functional
[22] = tested on: Mus musculus; assay: In vivo activity tested against C3H mice bearing mammary adenocarcinoma -17/ADR tumor measured as % treated/control calculated at 1250 mg/kg (po); format: functional
[23] = tested on: Mus musculus; assay: In vivo activity tested against C3H mice bearing mammary adenocarcinoma -17/ADR tumor measured as % treated/control calculated at 750 mg/kg (po); format: functional
[24] = tested on: Mus musculus; assay: In vivo activity tested against C3H mice bearing mammary adenocarcinoma -17/ADR tumor measured as log Kill value was based on tumors that grew at 750 mg/kg (po); format: functional, organism-based; parameters: dose 750 mg/kg
[25] = tested on: Mus musculus; assay: In vivo activity tested against C3H mice bearing mammary adenocarcinoma -17/ADR tumor measured as log Kill value was based on tumors that grew at 1250 mg/kg (po); format: functional, organism-based; parameters: dose 1250 mg/kg
[26] = tested on: Mus musculus; assay: In vivo activity against iv transplanted AML Leukemia 1498 tumors of mice; format: functional, organism-based
[27] = tested on: Mus musculus; assay: In vivo activity tested against C3H mice bearing panc-03 murine tumor measured as % treated/control calculated at 800 mg/kg (po); format: functional
[28] = tested on: Mus musculus; assay: In vivo activity tested against C3H mice bearing panc-03 murine tumor measured as body weight loss at 800 mg/kg (po); format: functional
[29] = tested on: Mus musculus; assay: In vivo activity tested against C3H mice bearing panc-03 murine tumor measured as log Kill value was based on tumors that grew at 800 mg/kg (po); format: functional, organism-based; parameters: dose 800 mg/kg
[30] = tested on: Mus musculus; assay: In vivo activity tested against C3H mice bearing mammary adenocarcinoma -17/ADR tumor measured as body weight loss at 301 mg/kg (po); format: functional
[31] = tested on: Mus musculus; assay: In vivo activity tested against C3H mice bearing mammary adenocarcinoma -17/ADR tumor measured as % treated/control calculated at 301 mg/kg (po); format: functional
[32] = tested on: Mus musculus; assay: In vivo activity tested against C3H mice bearing mammary adenocarcinoma -17/ADR tumor measured as activity rating at 301 mg/kg (po); format: functional
[33] = tested on: Mus musculus; assay: In vivo activity tested against C3H mice bearing mammary adenocarcinoma -17/ADR tumor measured as log Kill value was based on tumors that grew at 301 mg/kg (po); format: functional, organism-based; parameters: dose 301 mg/kg
[34] = tested on: Mus musculus; assay: In vivo antitumor activity against tumor […]; Inactive; format: functional, organism-based
[35] = tested on: Mus musculus; assay: In vivo activity against transplanted Mam-16/C/Adr tumors of mice; Not active; format: functional, organism-based
[36] = tested on: Mus musculus; assay: In vivo activity against transplanted Mam-17 tumors of mice; Not active; format: functional, organism-based
[37] = tested on: Mus musculus; assay: In vivo activity against transplanted Mam-17/Adr tumors of mice; Not active; format: functional, organism-based
[38] = tested on: Mus musculus; assay: In vivo activity against transplanted Mel-B16 tumors of mice; Not active; format: functional, organism-based
[39] = tested on: Mus musculus; assay: In vivo activity against transplanted Panc-02 tumors of mice; Not active; format: functional, organism-based
[40] = tested on: Mus musculus; assay: In vivo activity against transplanted Panc-03 tumors of mice; Not active; format: functional, organism-based
[41] = tested on: Mus musculus; assay: In vivo activity against transplanted colon-51 tumors of mice; Not active; format: functional, organism-based
[42] = organism: Mus musculus; assay: […] activity against C3H mice bearing panc-03 murine tumor; Inactive; format: functional, organism-based
[43] = tested on: Mus musculus; assay: In vivo activity against C3H mice bearing panc-03 murine tumor; Inactive; format: functional, organism-based

Compound: CC(Oc1cccc(Oc2cnc3ccc(Cl)cc3n2)c1)C(=O)O (stereo not given)
- T/C [1]: 100%
- Activity rating [2]: <0.7

Compound: CC(Oc1ccc(Oc2cnc3cc([N+](=O)[O-])ccc3n2)cc1)C(=O)O (stereo not given)
- T/C [3]: 41%
- Body weight loss [4]: -1.4%
- Log kill [5]: 0.42

Compound: O=NN(CCCl)C(=O)NCCCl
- NA [6]: inactive
- NA [7]: inactive
- Log kill [8]: > 5
- Log kill [9]: < 0.7
- Log kill [10]: 0.7
- Log kill [11]: < 0.7
- Log kill [12]: < 0.7
- Log kill [13]: < 0.7
- Log kill [14]: 1.2
- Log kill [15]: > 2.8
- Log kill [16]: < 0.7
- Log kill [17]: 1.9
- Log kill [18]: > 2.8
- Log kill [19]: < 0.7

Compound: Cc1ccc2ncc(Oc3ccc(OC(C)C(=O)O)cc3)nc2c1 (stereo not given)
- Body weight loss [20]: 7.1%
- Body weight loss [21]: 4.3%
- T/C [22]: 21%
- T/C [23]: 47%
- Log kill [24]: 0.38
- Log kill [25]: 0.63

Compound: O=P1(N(CCCl)CCCl)NCCCO1 (stereo not given)
- NA [7]: inactive
- Log kill [26]: > 2.8
- Log kill [8]: 4.9
- Log kill [9]: 2.8
- Log kill [10]: > 2.8
- Log kill [11]: 2.8
- Log kill [12]: < 0.7
- Log kill [13]: 1.9
- Log kill [14]: > 2.8
- Log kill [15]: 1.9
- Log kill [16]: 0.7
- Log kill [17]: 1.9
- Log kill [18]: 1.9
- Log kill [19]: 2.8

Compound: CC(Oc1ccc(Oc2cnc3ccc(Cl)cc3n2)cc1)C(=O)NN (stereo not given)
- T/C [27]: 27%
- Body weight loss [28]: -6.5%
- Log kill [29]: 0.75

Compound: C[C@H](Oc1ccc(Oc2cnc3ccc(Cl)cc3n2)cc1)C(=O)O
- Body weight loss [30]: -3%
- T/C [31]: 0%
- Activity rating [32]: >2.8
- Log kill [33]: 2.7

Compound: CC(Oc1ccccc1Oc1cnc2ccc(Cl)cc2n1)C(=O)O (stereo not given)
- NA [34]: inactive

Compound: Nc1ccn([C@@H]2O[C@H](CO)[C@@H](O)C2(F)F)c(=O)n1
- NA [6]: inactive
- NA [7]: inactive
- NA [35]: inactive
- NA [36]: inactive
- NA [37]: inactive
- NA [38]: inactive
- NA [39]: inactive
- NA [40]: inactive
- NA [41]: inactive
- Log kill [8]: > 5
- Log kill [9]: > 2.8
- Log kill [14]: < 0.7
- Log kill [15]: 2.8
- Log kill [16]: 2.8

Compound: CC(C#N)Oc1ccc(Oc2cnc3ccc(Cl)cc3n2)cc1 (stereo not given)
- NA [42]: inactive

Compound: CC(Oc1ccc(Oc2cnc3ccc(Cl)cc3n2)cc1)C(=O)NO (stereo not given)
- NA [43]: inactive

Compound: CC(Oc1ccc(-c2ccc(Oc3cnc4ccc(Cl)cc4n3)cc2)cc1)C(=O)O (stereo not given)
- NA [34]: inactive

Compound: CC(Oc1ccc(Oc2cnc3ccc(N)cc3n2)cc1)C(=O)O (stereo not given)
- NA [42]: inactive
